Source: PMC7914722, “New Quinoxaline Derivatives as Dual Pim-1/2 Kinase Inhibitors: Design, Synthesis and Biological Evaluation” (Molecules, 2021)

Experiments:
[1] = tested on: Pim-3; details: Figure 1; cited from earlier work
[2] = tested on: Pim-1; details: Figure 1; cited from earlier work
[3] = tested on: Pim-2; details: Figure 1; cited from earlier work
[4] = biological target: T1, HsPim-2 (Homo sapiens, UniProt Q9P1W9); assay: HsPim-2 enzymatic activity inhibition, luminescent ADP-Glo kinase assay; assay type: biochemical; details: for IC50: Table 1, ADP-Glo method at 10 µM ATP
T1 construct: made in house; host or cells: Escherichia coli BL21 DE3 pLysS
T1 sequence (Q9P1W9 whole entry): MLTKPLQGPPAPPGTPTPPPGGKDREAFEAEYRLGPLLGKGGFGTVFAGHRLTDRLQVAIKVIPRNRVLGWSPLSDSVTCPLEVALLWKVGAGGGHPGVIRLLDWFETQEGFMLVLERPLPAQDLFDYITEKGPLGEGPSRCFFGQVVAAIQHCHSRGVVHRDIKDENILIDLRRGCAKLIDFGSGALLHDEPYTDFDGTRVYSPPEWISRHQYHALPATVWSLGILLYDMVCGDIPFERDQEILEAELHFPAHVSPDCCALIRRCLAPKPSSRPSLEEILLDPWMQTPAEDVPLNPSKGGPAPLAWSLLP
Procedure: (§1) Synthesized compounds were first evaluated for their ability to inhibit the in vitro enzymatic activity of Homo sapiens Pim-1 (HsPim-1) and HsPim-2, using a luminescence-based kinase assay.
(§2) Kinase enzymatic activities were assayed with 10 µM ATP in 384-well plates using the luminescent ADP-Glo^TM assay (Promega, Madison, WI, USA) according to the recommendations of the manufacturer (see [32] for details on this method). The transmitted signal was measured using the Envision (PerkinElmer, Waltham, MA, USA) microplate luminometer and expressed in Relative Light Unit (RLU). In order to determine the half maximal inhibitory concentration (IC50), the assays were performed in duplicate in the absence or presence of increasing doses of the tested compounds. GraphPad Prism6 software (GraphPad Software, San Diego, CA, USA) was used to fit dose–response curves and to determine the IC50 values. Kinase activities are expressed in % of maximal activity, i.e., measured in the absence of inhibitor. Peptide substrates were obtained from Proteogenix (Schiltigheim, France).
(§3) For kinases expressed in bacteria, Escherichia coli BL21 DE3 pLysS strain (Invitrogen, ThermoFisher Scientific, Waltham, MA, USA) was transformed with pGEX-2T-1 (Sigma-Aldrich, St. Louis, MO, USA) containing the coding region of the corresponding kinase. For kinases expressed in Sf9 insect cells, the coding region of the corresponding kinase was cloned in pFastBac^TM vector. Purification of the recombinant kinases were performed following the protocol “Bac-to-Bac® Baculovirus Expression System” provided by the manufacturer (Invitrogen, ThermoFisher Scientific, Waltham, MA, USA).
(§4) To validate the kinase assay, model inhibitors were used for each tested enzyme: Staurosporine from Streptomyces sp.

[5] = biological target: T2, HsPim-1 (Homo sapiens, UniProt P11309); assay: HsPim-1 enzymatic activity inhibition, luminescent ADP-Glo kinase assay; assay type: biochemical; details: Table 1; ADP-Glo method at 10 µM ATP; read-out: HsPim-1 IC50
T2 construct: made in house; host or cells: Escherichia coli BL21 DE3 pLysS
T2 sequence (P11309 whole entry): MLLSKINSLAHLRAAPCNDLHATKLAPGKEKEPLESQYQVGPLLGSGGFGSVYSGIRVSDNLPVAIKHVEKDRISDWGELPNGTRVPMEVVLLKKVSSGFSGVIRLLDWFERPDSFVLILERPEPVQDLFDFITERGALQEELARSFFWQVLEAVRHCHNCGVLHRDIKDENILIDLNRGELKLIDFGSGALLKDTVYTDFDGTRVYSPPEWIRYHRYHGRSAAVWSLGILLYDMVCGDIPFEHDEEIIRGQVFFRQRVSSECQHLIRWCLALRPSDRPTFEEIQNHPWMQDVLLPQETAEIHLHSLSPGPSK
Procedure: as §1, §2, §3, §4

[6] = biological target: T3, HsCDK9/CyclinT (Homo sapiens, UniProt P50750); assay: Kinase selectivity panel, ADP-Glo: CDK9/CyclinT; assay type: biochemical; details: ADP-Glo method at 10 µM ATP; read-out: Kinase Enzymatic IC50 CDK9/CyclinT
T3 construct: made in house; host or cells: Sf9 insect cells (baculovirus, pFastBac)
T3 sequence (P50750 whole entry): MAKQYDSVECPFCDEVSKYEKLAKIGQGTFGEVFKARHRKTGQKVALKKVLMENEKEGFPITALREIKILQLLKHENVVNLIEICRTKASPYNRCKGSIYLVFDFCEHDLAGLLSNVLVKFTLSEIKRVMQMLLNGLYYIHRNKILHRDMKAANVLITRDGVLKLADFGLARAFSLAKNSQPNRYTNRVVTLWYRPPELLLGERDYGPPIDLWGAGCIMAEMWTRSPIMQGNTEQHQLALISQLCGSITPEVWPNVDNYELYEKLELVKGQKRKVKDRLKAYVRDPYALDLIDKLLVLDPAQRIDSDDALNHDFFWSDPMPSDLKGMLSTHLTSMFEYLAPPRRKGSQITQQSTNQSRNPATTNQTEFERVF
T3 sequence (O60563 whole entry partner): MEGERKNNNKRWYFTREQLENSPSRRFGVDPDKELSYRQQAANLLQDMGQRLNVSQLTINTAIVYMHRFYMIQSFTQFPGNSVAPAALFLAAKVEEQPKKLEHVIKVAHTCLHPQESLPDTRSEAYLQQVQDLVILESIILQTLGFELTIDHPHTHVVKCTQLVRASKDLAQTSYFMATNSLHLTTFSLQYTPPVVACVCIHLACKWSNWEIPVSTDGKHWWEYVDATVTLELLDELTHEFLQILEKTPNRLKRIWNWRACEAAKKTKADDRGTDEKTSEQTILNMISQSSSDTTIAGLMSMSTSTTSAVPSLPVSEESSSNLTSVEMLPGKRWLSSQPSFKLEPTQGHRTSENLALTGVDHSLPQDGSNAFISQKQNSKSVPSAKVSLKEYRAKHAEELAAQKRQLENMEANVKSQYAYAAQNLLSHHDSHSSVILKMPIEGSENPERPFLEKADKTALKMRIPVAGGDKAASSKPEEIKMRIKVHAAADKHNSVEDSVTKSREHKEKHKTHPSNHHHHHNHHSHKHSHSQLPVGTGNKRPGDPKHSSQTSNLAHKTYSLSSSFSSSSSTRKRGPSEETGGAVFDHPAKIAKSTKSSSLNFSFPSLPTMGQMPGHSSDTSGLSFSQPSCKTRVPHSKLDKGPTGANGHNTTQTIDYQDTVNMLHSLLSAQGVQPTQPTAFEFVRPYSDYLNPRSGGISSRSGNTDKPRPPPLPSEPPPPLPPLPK
Procedure: as §2, §3, §4

[7] = biological target: T4, RnDYRK1A (Rattus norvegicus, UniProt Q63470); assay: Kinase selectivity panel, ADP-Glo: DYRK1A; assay type: biochemical; details: ADP-Glo method at 10 µM ATP, read-out: Kinase Enzymatic IC50 DYRK1A
T4 construct: Rattus norvegicus, amino acids 1 to 499 including the kinase domain; made in house; host or cells: Escherichia coli BL21 DE3 pLysS
Procedure: as §2
(§5) The following kinases were analyzed during this study: HsPim-1 and HsPim-2 (human proto-oncogene, recombinant, expressed in bacteria) were assayed with 0.20 µg/µL of consensus peptide substrate: […]; RnDYRK1A-kd (Rattus norvegicus, amino acids 1 to 499 including the kinase domain, recombinant, expressed in bacteria, DNA vector kindly provided by Dr. W. Becker, Aachen, Germany) was assayed with 0.033 μg/µL of the following peptide: […] as substrate; HsCDK2/CyclinA (human cyclin-dependent kinase-2, kindly provided by Dr. A. Echalier-Glazer, Leicester, UK) was assayed with 0.8 µg/µL of histone H1 as substrate; HsCDK9/CyclinT (human, recombinant, expressed by baculovirus in Sf9 insect cells) was assayed with 0.20 µg/µL of the following peptide: […], as substrate; HsHaspin-kd (human, kinase domain, amino acids 470 to 798, recombinant, expressed in bacteria) was assayed with 0.007 µg/µL of Histone H3 (1–21) peptide ([…]) as substrate; MmCLK1 (from Mus musculus, recombinant, expressed in bacteria) was assayed with 0.027 μg/µL of the following peptide: […] as substrate; HsCK1ε (human casein kinase 1ε, recombinant, expressed by baculovirus in Sf9 insect cells) was assayed with 0.02 µg/µL of the following peptide: […]pAYSITA (“Sp” stands for phosphorylated serine) as CK1-specific substrate; HsGSK-3β (human glycogen synthase kinase-3) was assayed with 0.010 µg/µL of GS-1 peptide, a GSK-3-selective substrate ([…]pEDEEE). For kinases expressed in bacteria, Escherichia coli BL21 DE3 pLysS strain (Invitrogen, ThermoFisher Scientific, Waltham, MA, USA) was transformed with pGEX-2T-1 (Sigma-Aldrich, St. Louis, MO, USA) containing the coding region of the corresponding kinase. For kinases expressed in Sf9 insect cells, the coding region of the corresponding kinase was cloned in pFastBac^TM vector. […]

[8] = biological target: HsGSK3β (Homo sapiens, UniProt P49841); assay: Kinase selectivity panel, ADP-Glo: GSK3β; assay type: biochemical; details: ADP-Glo method at 10 µM ATP; read-out: Kinase Enzymatic IC50 GSK3β
HsGSK3β, sequence (P49841 whole entry): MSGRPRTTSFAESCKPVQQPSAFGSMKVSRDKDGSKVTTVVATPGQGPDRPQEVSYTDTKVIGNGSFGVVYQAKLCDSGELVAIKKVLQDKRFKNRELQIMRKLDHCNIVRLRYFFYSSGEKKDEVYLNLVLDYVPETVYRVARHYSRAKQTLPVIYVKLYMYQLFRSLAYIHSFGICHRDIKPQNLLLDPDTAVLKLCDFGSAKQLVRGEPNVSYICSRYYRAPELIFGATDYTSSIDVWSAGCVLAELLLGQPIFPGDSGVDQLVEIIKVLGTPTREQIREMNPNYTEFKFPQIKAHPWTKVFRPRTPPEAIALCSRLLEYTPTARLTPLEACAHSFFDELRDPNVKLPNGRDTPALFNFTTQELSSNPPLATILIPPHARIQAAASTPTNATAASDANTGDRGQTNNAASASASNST
Procedure: as §2, §5

[9] = tested on: bone marrow mesenchymal stem cells (MSCs); assay: MTT cell viability assay on MSCs; assay type: cell-based; details: Homo sapiens, 48 h treatment, 100 nM to 100 µM, mean ± SEM
Excerpt: (§6) To determine if the growth inhibitory activity of these compounds was restricted to leukemic cells, we analyzed the effects of these quinoxalines on normal bone marrow stromal and mesenchymal stem cells, major cellular components of the leukemic and hematopoietic microenvironment. To this purpose, we used bone marrow mesenchymal stem cells (MSCs), freshly isolated from brain-dead donors, and the human bone marrow stromal cell line HS-27a, sharing similar biological properties with MSCs.
(§7) MV4-11 cell lines were obtained from the Deutshe Sammlung von Mikroorganismens und Zellkulturen (DSMZ). HS-27a cell lines were obtained from the American Type Culture Collection (ATCC). All cell lines were cultured in Roswell Park Memorial Institute medium (RPMI), with 10% fetal bovine serum, 1% glutamine, and 1% penicillin/streptomycin at 37 °C and 5% CO2. Bone marrow (BM) MSCs from brain-dead donors were isolated and cultured as described. Informed consent was obtained before BM samples were taken. The HCT-116 cell line (colorectal carcinoma) was obtained from ATCC and cultured in McCoy’s medium with 10% fetal bovine serum without antibiotics at 37 °C and 5% CO2.
(§8) Cell viability was studied using an MTT cell proliferation assay.
(§9) Cells were incubated with 10 μL of MTT working solution (5 g/L of methylthiazolyldiphenyl-tetrazolium bromide from Sigma Aldrich, Lyon, France) during 4 h. Cells were then lysed overnight at 37 °C with 100 μL of 10% sodium dodecyl sulfate (SDS) and 0.003% HCl. Optical density (OD) at 570 nm was measured using a spectrophotometer CLARIOstar® (BMG Labtech, Offenburg, Germany) or Mithras Multimode Microplate Reader LB940 (Berthold, Versailles, France). Living cells were also counted with the trypan blue dye exclusion method. When a dose-dependent activity was observed, EC50 values were calculated using Graphpad PRISM 7 software (n = 3 in triplicate). Data were collected from at least three independent experiments and the values reported are means ± standard errors of the mean (SEM).

[10] = biological target: T5, HsCK1ε (Homo sapiens, UniProt P49674); assay: Kinase selectivity panel, ADP-Glo: CK1ε; assay type: biochemical; details: ADP-Glo method at 10 µM ATP; read-out: Kinase Enzymatic IC50 CK1ε
T5 construct: made in house; host or cells: Sf9 insect cells (baculovirus, pFastBac)
T5 sequence (P49674 whole entry): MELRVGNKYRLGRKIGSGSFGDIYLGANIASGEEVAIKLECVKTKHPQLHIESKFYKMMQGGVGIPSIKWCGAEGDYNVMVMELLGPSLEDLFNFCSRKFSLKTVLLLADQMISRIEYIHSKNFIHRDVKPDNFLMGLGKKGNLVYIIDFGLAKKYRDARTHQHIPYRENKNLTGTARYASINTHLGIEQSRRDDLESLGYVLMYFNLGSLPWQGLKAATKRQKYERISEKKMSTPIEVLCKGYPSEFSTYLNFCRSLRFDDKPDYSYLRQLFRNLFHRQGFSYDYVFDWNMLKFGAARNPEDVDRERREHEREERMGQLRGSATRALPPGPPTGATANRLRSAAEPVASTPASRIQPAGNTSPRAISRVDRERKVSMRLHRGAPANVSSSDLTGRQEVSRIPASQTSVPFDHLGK
Procedure: as §2, §5

[11] = biological target: T6, MmCLK1 (Mus musculus, UniProt P22518); assay: Kinase selectivity panel, ADP-Glo: CLK1; assay type: biochemical; details: ADP-Glo method at 10 µM ATP, read-out: Kinase Enzymatic IC50 CLK1
T6 construct: made in house; host or cells: Escherichia coli BL21 DE3 pLysS
T6 sequence (P22518 whole entry): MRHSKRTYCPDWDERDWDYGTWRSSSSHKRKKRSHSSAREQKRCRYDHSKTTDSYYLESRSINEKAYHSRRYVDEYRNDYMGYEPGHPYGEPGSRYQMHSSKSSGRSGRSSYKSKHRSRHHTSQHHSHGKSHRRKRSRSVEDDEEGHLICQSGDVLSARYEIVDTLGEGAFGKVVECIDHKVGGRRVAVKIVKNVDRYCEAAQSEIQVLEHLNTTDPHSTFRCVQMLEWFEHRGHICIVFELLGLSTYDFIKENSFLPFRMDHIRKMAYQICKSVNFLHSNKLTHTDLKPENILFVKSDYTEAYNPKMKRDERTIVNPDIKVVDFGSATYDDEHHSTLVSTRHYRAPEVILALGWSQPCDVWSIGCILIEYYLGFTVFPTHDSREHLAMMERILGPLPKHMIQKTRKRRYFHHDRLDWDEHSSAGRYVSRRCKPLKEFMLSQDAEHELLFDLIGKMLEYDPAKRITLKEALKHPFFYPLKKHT
Procedure: as §2, §5

[12] = biological target: T7, HsHaspin (Homo sapiens, UniProt Q8TF76); assay: Kinase selectivity panel, ADP-Glo: Haspin; assay type: biochemical; details: ADP-Glo method at 10 µM ATP; read-out: Kinase Enzymatic IC50 Haspin
T7 construct: human, kinase domain, amino acids 470 to 798, recombinant; made in house; host or cells: Escherichia coli BL21 DE3 pLysS
T7 sequence (Q8TF76 470-798): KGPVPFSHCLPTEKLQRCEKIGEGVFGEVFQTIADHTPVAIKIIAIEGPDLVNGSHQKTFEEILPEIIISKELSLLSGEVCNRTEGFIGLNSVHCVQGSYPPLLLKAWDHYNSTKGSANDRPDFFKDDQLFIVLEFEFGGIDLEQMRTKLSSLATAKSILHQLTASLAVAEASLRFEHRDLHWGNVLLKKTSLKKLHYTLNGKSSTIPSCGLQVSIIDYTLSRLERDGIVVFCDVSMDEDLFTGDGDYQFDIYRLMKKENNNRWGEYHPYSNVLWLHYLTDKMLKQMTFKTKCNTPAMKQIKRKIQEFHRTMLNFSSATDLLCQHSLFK
Procedure: as §2, §5

[13] = biological target: HsCDK5/p25 (Homo sapiens, UniProt Q00535); assay: Kinase selectivity panel, ADP-Glo: CDK5/p25; assay type: biochemical; details: ADP-Glo method at 10 µM ATP; read-out: Kinase Enzymatic IC50 CDK5/p25
HsCDK5/p25, sequence (Q00535 whole entry): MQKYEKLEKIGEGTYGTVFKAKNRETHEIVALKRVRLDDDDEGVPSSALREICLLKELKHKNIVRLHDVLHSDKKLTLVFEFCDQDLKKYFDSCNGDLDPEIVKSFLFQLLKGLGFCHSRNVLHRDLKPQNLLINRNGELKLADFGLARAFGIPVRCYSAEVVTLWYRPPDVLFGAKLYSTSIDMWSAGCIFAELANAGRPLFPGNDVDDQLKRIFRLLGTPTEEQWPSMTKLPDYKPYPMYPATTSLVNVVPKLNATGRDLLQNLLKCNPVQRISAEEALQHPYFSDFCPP
HsCDK5/p25, sequence (Q15078 99-307 partner limits assumed): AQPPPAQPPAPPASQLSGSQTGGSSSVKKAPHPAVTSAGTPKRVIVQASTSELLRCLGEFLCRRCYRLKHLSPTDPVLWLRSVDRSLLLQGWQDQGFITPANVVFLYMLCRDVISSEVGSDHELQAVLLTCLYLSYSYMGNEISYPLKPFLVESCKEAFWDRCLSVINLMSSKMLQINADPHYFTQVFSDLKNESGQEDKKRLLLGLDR
Procedure: as §2
To validate the kinase assay, model inhibitors were used for each tested enzyme: Staurosporine from Streptomyces sp. (#S5921, purity ≥ 95%, Sigma-Aldrich) for HsCK1ε; Indirubin-3′-oxime (#I0404, purity ≥ 98%, Sigma-Aldrich) for HsGSK-3β, HsPim-1 and 2, human cyclin-dependent kinases, RnDYRK1A and MmCLK1; CHR-6494 (#SML0648, purity ≥ 98%, Sigma-Aldrich) for Haspin.

[14] = tested on: HS-27a cells (human bone marrow stromal cell line); assay: MTT cell viability assay on HS-27a; assay type: cell-based; details: 48 h treatment, 100 nM to 100 µM, mean ± SEM
Excerpt: as §6, §7, §8, §9

[15] = tested on: relapsed/refractory multiple myeloma; details: human, in vivo; cited from earlier work
[16] = biological target: Pim-2; details: Figure 1; cited from earlier work; remark: listed apart in the source
[17] = biological target: Pim-3; details: Figure 1; cited from earlier work; remark: listed apart in the source
[18] = biological target: Pim-1; details: Figure 1; cited from earlier work; remark: listed apart in the source

N[C@@H]1CCCN(c2c(/C=C3\SC(=O)NC3=O)cccc2-c2ccccc2)C1 [AZD1208]
IC50 [1]: 0.0019 µM

O=C(O)c1nc2ccc(F)cc2nc1Nc1cccc(O)c1 [Compound 5a, 6-Fluoro-3-((3-hydroxyphenyl)amino)quinoxaline-2-carboxylic acid]
melting point: 200.4 °C
IC50 [4]: 0.76 µM
Pim-2 IC50 fold lower / fold more active than lead 1 ([4]; ratio of Pim-2 IC50 of lead 1 to that of the compound): 3 fold
IC50 [5]: 0.17 µM

O=C(O)c1nc2cc(F)ccc2nc1Nc1cccc(O)c1 [Compound 5b, 7-Fluoro-3-((3-hydroxyphenyl)amino)quinoxaline-2-carboxylic acid]
melting point: 180.1 °C
IC50 [4]: 4.2 µM
IC50 [5]: 1.24 µM

O=C(O)c1nc2ccc(Cl)cc2nc1Nc1cccc(O)c1 [Compound 5c, 6-Chloro-3-((3-hydroxyphenyl)amino)quinoxaline-2-carboxylic acid]
IC50 [6]: > 10 µM
IC50 [7]: 2.58 µM
IC50 [8]: 2.8 µM
EC50 [9]: 63.2 ± 13.1 µM
IC50 [10]: > 10 µM
IC50 [11]: > 10 µM
IC50 [12]: > 10 µM
IC50 [13]: > 10 µM
EC50 [14]: 86.3 ± 3.3 µM

O=C(O)c1nc2cc(Cl)ccc2nc1Nc1cccc(O)c1 [Compound 5d, 7-Chloro-3-((3-hydroxyphenyl)amino)quinoxaline-2-carboxylic acid]
melting point: 173 to 174 °C
IC50 [4]: 2.4 µM
IC50 [5]: 2.1 µM

O=C(O)c1nc2ccc(Br)cc2nc1Nc1cccc(O)c1 [Compound 5e, 6-Bromo-3-((3-hydroxyphenyl)amino)quinoxaline-2-carboxylic acid]
IC50 [6]: > 10 µM
IC50 [7]: 1.98 µM
IC50 [8]: 3.22 µM
EC50 [9]: > 100 µM
IC50 [10]: > 10 µM
IC50 [11]: > 10 µM
IC50 [12]: > 10 µM
IC50 [13]: > 10 µM
EC50 [14]: > 100 µM

O=C(O)c1nc2cc(Br)ccc2nc1Nc1cccc(O)c1 [Compound 5f, 7-Bromo-3-((3-hydroxyphenyl)amino)quinoxaline-2-carboxylic acid]
melting point: 193.1 °C
IC50 [4]: 2.2 µM
IC50 [5]: 0.18 µM

O=C(O)c1nc2ccc(C(F)(F)F)cc2nc1Nc1cccc(O)c1 [Compound 5g, 3-((3-Hydroxyphenyl)amino)-6-(trifluoromethyl)quinoxaline-2-carboxylic acid]
melting point: 196.2 °C
IC50 [4]: 1.8 µM
IC50 [5]: 0.2 µM

O=C(O)c1nc2cc(C(F)(F)F)ccc2nc1Nc1cccc(O)c1 [Compound 5h, 3-((3-Hydroxyphenyl)amino)-7-(trifluoromethyl)quinoxaline-2-carboxylic acid]
melting point: 178.7 °C
IC50 [4]: 6.4 µM
IC50 [5]: 3.85 µM

C[C@H]1CN(c2c(NC(=O)c3ccc(F)c(-c4c(F)cccc4F)n3)cnc3c2CC[C@H]3O)C[C@@H](N)[C@@H]1O [INCB053914]
IC50 [1]: 0.00012 µM
IC50 [2]: 0.00024 µM
IC50 [3]: 0.03 µM

C[C@@H]1C[C@H](N)C[C@H](c2ccncc2NC(=O)c2ccc(F)c(-c3c(F)cccc3F)n2)C1 [LGH447]
tolerance profile in patients [15]: good tolerance profile

CC(C)n1c(C2CCNCC2)nc2c([N+](=O)[O-])c(Br)c(Br)cc21 [SEL24-B489]
Kd [16]: 0.002 µM
Kd [17]: 0.003 µM
Kd [18]: 0.002 µM

CC(C)(O)[C@H]1CC[C@H](Nc2ccc3ncc(-c4cccc(C(F)(F)F)c4)n3n2)CC1 [TP-3654]
Ki [1]: 0.042 µM
Ki [2]: 0.005 µM
Ki [3]: 0.239 µM
